We go through five compounds from PubChem BioAssay (NCI).

What all share (assay): NCI anticancer screen, dose series, 48 h
Assay [1] has as its system SF-539 CNS.
Assay [2] has as its system K-562 leukemia.
For assay [3], the system named is COLO 205 colon.
Assay [4] relates to NCI-H226 lung.
In assay [5] the test system is HT29 colon.
The subject of assay [6] is M14 melanoma.
The test system of assay [7] is MDA-MB-231 breast.
The subject of assay [8] is SK-MEL-5 melanoma.
Assay [9] has as its system SK-OV-3 ovarian.
Assay [10] deals with HOP-62 NSCLC.

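Following 48 hours of exposure in 96-well plates, responses at five concentrations were used to interpolate endpoints linearly. GI50 = concentration required for 50% inhibition of growth. TGI: concentration producing complete growth inhibition.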 A value given as a limit tells only on which side of the number the result lay.

As to `O=C(O)CN(CC(=O)O)Cc1cc2c(cc1O)Oc1cc(O)c(CN(CC(=O)O)CC(=O)O)cc1C21OC(=O)c2ccccc21`, the TGI in [1], in assay [2], in [3], in assay [4], in assay [5] and in assay [6] was more than 100 µM in each case. The TGI in assay [7], in [8], in assay [9] and in assay [10] was more than 100 µM each time.

As to `CC(C)c1ccc2c(N=Nc3ccc(S(N)(=O)=O)cc3)c(O)[nH]c2c1`, the GI50 in [1] is 5.56 µM; in assay [2], more than 25 µM; in assay [3] it was more than 25 µM; in assay [4], 6.62 µM; in assay [5], more than 25 µM; in [6], more than 25 µM. Further, the GI50 in assay [7] was 9.17 µM; in assay [8], 9.86 µM; in assay [9] it was 7.22 µM; in [10], 5.54 µM. The TGI was more than 25 µM in assay [1]; more than 25 µM in [2]; more than 25 µM in assay [3]; more than 20.6 µM in assay [4]; more than 25 µM in [5]; more than 25 µM in assay [6]. Moreover, the TGI in assay [7] was more than 25 µM; in assay [8], more than 25 µM; in assay [9], 19.3 µM; in assay [10] it was 12.6 µM.

Regarding `CSC(=S)N/N=C/c1ccccc1`, the TGI in assay [1], in [2], in [3], in [4], in [5] and in assay [6] was more than 100 µM in each case. Besides, the TGI in [7], in assay [8], in assay [9] and in assay [10] was more than 100 µM each time.

Turning to `COc1ccc(S(=O)(=O)N2CCN(C(=O)OCc3ccccc3)CC2C(=O)NO)cc1` (stereo not given), the GI50 in assay [1] was more than 25 µM; in assay [2], 13.6 µM; in [3], more than 25 µM; in assay [4] it was more than 25 µM; in assay [5], more than 25 µM; in assay [6], more than 25 µM. The GI50 in assay [7], in assay [8], in assay [9] and in assay [10] was more than 25 µM in each case. The TGI in assay [1], in assay [2], in assay [3], in assay [4], in [5] and in [6] was more than 25 µM throughout. The TGI in [7], in assay [8], in assay [9] and in [10] was more than 25 µM each time.

`O=C(/C=C/C=C/c1ccccc1)c1ccc(Nc2nc(Nc3ccccc3)nc(Nc3ccccc3)n2)cc1`: the GI50 in assay [1] is 61.6 µM; in [2], 7.73 µM; in [3], 2.16 µM; in assay [4] it was more than 100 µM; in assay [5], more than 100 µM; in [6], 77.5 µM. Besides, the GI50 in [7] is 34.7 µM; in [8], 13 µM; in assay [9] it was more than 100 µM; in [10], more than 100 µM. Moreover, the TGI was more than 100 µM in assay [1]; 37.2 µM in assay [2]; more than 100 µM in assay [3]; more than 100 µM in assay [4]; more than 100 µM in assay [5]; more than 100 µM in [6]. Moreover, the TGI in assay [7], in assay [8], in [9] and in assay [10] was more than 100 µM each time.
